This note sets out measurements from US6906097B2, “8-azaprostaglandin analogs as agents for lowering intraocular pressure” (Allergan, Inc., priority 2002, dated 2005).

Molecules are shown by their SMILES.

This test addresses T1, hEP1 (Homo sapiens, UniProt P34995).
T1 construct: expressed in transfected cells
T1 sequence (P34995 1-402): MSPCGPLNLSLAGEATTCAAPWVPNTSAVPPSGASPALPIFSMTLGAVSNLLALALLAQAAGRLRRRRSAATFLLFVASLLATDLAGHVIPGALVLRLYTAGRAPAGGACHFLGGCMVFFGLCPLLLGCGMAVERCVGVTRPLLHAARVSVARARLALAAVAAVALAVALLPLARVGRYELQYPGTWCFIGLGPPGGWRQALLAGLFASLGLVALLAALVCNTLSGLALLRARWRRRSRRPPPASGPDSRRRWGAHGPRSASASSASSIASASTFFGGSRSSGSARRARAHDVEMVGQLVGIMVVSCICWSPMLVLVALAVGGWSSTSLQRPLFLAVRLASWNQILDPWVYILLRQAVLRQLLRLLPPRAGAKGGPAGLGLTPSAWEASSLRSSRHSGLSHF
Kind of test: Functional data, human recombinant EP1 receptor stable transfectants. The class given is cell-based. The protocol:
Human Recombinant EP1, EP2, EP3, EP4, FP, TP, IP and DP Receptors: Stable Transfectants
Plasmids encoding the human EP1, EP2, EP3, EP4, FP, TP, IP and DP receptors were prepared by cloning the respective coding sequences into the eukaryotic expression vector pCEP4 (Invitrogen). The pCEP4 vector contains an Epstein Barr virus (EBV) origin of replication, which permits episomal replication in primate cell lines expressing EBV nuclear antigen (EBNA-1). It also contains a hygromycin resistance gene that is used for eukaryotic selection. The cells employed for stable transfection were human embryonic kidney cells (HEK-293) that were transfected with and express the EBNA-1 protein. These HEK-293-EBNA cells (Invitrogen) were grown in medium containing Geneticin (G418) to maintain expression of the EBNA-1 protein. HEK-293 cells were grown in DMEM with 10% fetal bovine serum (FBS), 250 μg ml^−1 G418 (Life Technologies) and 200 μg ml^−1 gentamicin or penicillin/streptomycin.
For transfection, the cells were grown to 50-60% confluency on 10 cm plates. The plasmid pCEP4 incorporating cDNA inserts for the respective human prostanoid receptor (20 μg) was added to 500 μl of 250 mM CaCl2. HEPES buffered saline×2 (2×HBS, 280 mM NaCl, 20 mM HEPES acid, 1.5 mM Na2 HPO4, pH 7.05-7.12) was then added dropwise to a total of 500 μl, with continuous vortexing at room temperature. After 30 min, 9 ml DMEM were added to the mixture. The DNA/DMEM/calcium phosphate mixture was then added to the cells, which had been previously rinsed with 10 ml PBS. The cells were then incubated for 5 hr at 37° C. in humidified 95% air/5% CO2. The calcium phosphate solution was then removed and the cells were treated with 10% glycerol in DMEM for 2 min. The glycerol solution was then replaced by DMEM with 10% FBS. The cells were incubated overnight and the medium was replaced by DMEM/10% FBS containing 250 μg ml^−1 G418 and penicillin/streptomycin. The following day hygromycin B was added to a final concentration of 200 μg ml^−1.
Ten days after transfection, hygromycin B resistant clones were individually selected and transferred to a separate well on a 24 well plate. At confluence each clone was transferred to one well of a 6 well plate, and then expanded in a 10 cm dish. Cells were maintained under continuous hygromycin selection until use.

On to `O=C(O)CCCCCCN1C(=O)CC[C@@H]1CCC(O)Cc1cccc(Cl)c1` (stereo partly drawn) [Example 1, 7-[2S-[3R-Hydroxy-4-(chloro-phenyl)-butyl]-5-oxo-pyrrolidin-1-yl]-heptanoic acid], for which the EC50 was above 10 µM.
